Experimental data: US12133851B2, “Treatment of cholangiocarcinoma” (Janssen Pharmaceutica NV, priority 2018, dated 2024)
Read-outs that look alike come from different tables or passages of the source.

Legend:
[1] = test system: patients with FGFR-aberrant cholangiocarcinoma
[2] = LUC2001 (NCT02699606): pharmacokinetics and PK/PD (serum phosphate); assay type: in vivo, human
Procedure: Pharmacodynamic and safety: Serum phosphate concentration was continuously monitored as a pharmacodynamic endpoint during the study to facilitate dose adjustment per protocol specification. Serum phosphate was measured on cycle 1 day 14 for pharmacodynamic uptitration. On study, serum phosphate concentration was set to be below 7 mg/dL in order to avoid prolonged hyperphosphatemia.
Post hoc visual predictive check was performed on an existing population PK model, built with data from 373 patients with various tumor types (majority were caucasians).
Post hoc visual predictive check was performed on serum phosphate concentration data based on an existing population PK/PD model.

[3] = test system: advanced cholangiocarcinoma subjects with FGFR alterations
Procedure: Tumor assessments: Conducted every 8 (±1) weeks up to 1 year from start of study drug, then every 12 (±1) weeks thereafter until the patient dies, or withdrawal of consent or conclusion of the study, whichever occurs first.
ORR (complete response [CR] or partial response [PR]) and disease control rate (DCR) was calculated with 95% CI.
PFS was represented with descriptive summary statistics; Kaplan-Meier method was used for evaluation.

[4] = median follow-up 5.5 mo, 11 patients
[5] = of the 3 partial responses among 11 patients
[6] = conclusion of snapshot 20 Mar. 2018
[7] = as of 20 Aug. 2018, 11 patients
[8] = snapshot as of 20 Mar. 2018, 8 mg qd
[9] = snapshot as of 20 Mar. 2018, 11 subjects, 8 mg qd
[10] = as of 20 Aug. 2018, FGFR2 fusion
[11] = as of 20 Aug. 2018, patients with FGFR2 alteration (n=9)
[12] = snapshot as of 20 Mar. 2018, 11 response evaluable, 8 mg qd

Structure (SMILES): COc1cc(OC)cc(N(CCNC(C)C)c2ccc3ncc(-c4cnn(C)c4)nc3c2)c1 [erdafitinib, N-(3,5-dimethoxy-phenyl)-N′-(1-methylethyl)-N-[3-(1-methyl-1H-pyrazol-4-yl)quinoxalin-6-yl]ethane-1,2-diamine]
- objective response rate ([1]; 9 mg QD or 10 mg intermittent, all responses at 10 mg intermittent): 27.3%
- partial responses (number of patients) ([1]; 11 patients with FGFR-aberrant cholangiocarcinoma, 9 mg QD (n=1) or 10 mg intermittent (n=10)): 3
- Overall disease control rate, including stable disease ([1]; 11 patients, 9 mg QD or 10 mg intermittent, 6/11): 54.5%
- 6-mo progression-free survival rate [1, 4]: 36%
- 9-mo progression-free survival rate [1, 4]: 24%
- Median progression-free survival ([1]; median follow-up 5.5 mo, 95% CI 1.6 to 11.8 mo): 5.1 mo
- partial responses in patients with fusion FGFR2-BICC1 [1, 5]: 1
- partial responses in patients with fusion FGFR2-CCAR1 [1, 5]: 1
- results of PK and PK/PD relationship in Asian patients with advanced CCA ([2]; as of 20 Aug. 2018, post hoc visual predictive check on population PK and PK/PD models): consistent with that known from patients with other types of solid tumor and different ethnic background
- PK characteristics [2, 6]: consistent with data from other erdafitinib studies
- Drug-related TEAE Alanine aminotransferase increased, Any grade (Erdafitinib 8 mg (QD), N = 11): 2 N
- Drug-related TEAE Aspartate aminotransferase increased, Any grade (Erdafitinib 8 mg (QD), N = 11): 2 N
- Drug-related TEAE Constipation, Any grade (Erdafitinib 8 mg (QD), N = 11): 3 N
- Drug-related TEAE Decreased appetite, Any grade (Erdafitinib 8 mg (QD), N = 11): 3 N
- Drug-related TEAE Diarrhoea, Any grade (Erdafitinib 8 mg (QD), N = 11): 3 N
- Drug-related TEAE Dry eye, Any grade (Erdafitinib 8 mg (QD), N = 11): 2 N
- Drug-related TEAE Dry mouth, Any grade (Erdafitinib 8 mg (QD), N = 11): 8 N
- Drug-related TEAE Dry mouth, ≥Grade 3 (Erdafitinib 8 mg (QD), N = 11): 1 N
- Drug-related TEAE Dry skin, Any grade (Erdafitinib 8 mg (QD), N = 11): 5 N
- Drug-related TEAE Dry skin, ≥Grade 3 (Erdafitinib 8 mg (QD), N = 11): 1 N
- Drug-related TEAE Hyperphosphataemia, Any grade (Erdafitinib 8 mg (QD), N = 11): 10 N
- Drug-related TEAE Hyponatremia, Any grade (Erdafitinib 8 mg (QD), N = 11): 1 N
- Drug-related TEAE Hyponatremia, ≥Grade 3 (Erdafitinib 8 mg (QD), N = 11): 1 N
- Drug-related TEAE Nail disorder, Any grade (Erdafitinib 8 mg (QD), N = 11): 4 N
- Drug-related TEAE Nail disorder, ≥Grade 3 (Erdafitinib 8 mg (QD), N = 11): 1 N
- Drug-related TEAE Nausea, Any grade (Erdafitinib 8 mg (QD), N = 11): 2 N
- Drug-related TEAE Onycholysis, Any grade (Erdafitinib 8 mg (QD), N = 11): 1 N
- Drug-related TEAE Onycholysis, ≥Grade 3 (Erdafitinib 8 mg (QD), N = 11): 1 N
- Drug-related TEAE Onychomycosis, Any grade (Erdafitinib 8 mg (QD), N = 11): 2 N
- Drug-related TEAE Palmar-plantar erythrodysaesthesia syndrome, Any grade (Erdafitinib 8 mg (QD), N = 11): 4 N
- Drug-related TEAE Paronychia, Any grade (Erdafitinib 8 mg (QD), N = 11): 3 N
- Drug-related TEAE Paronychia, ≥Grade 3 (Erdafitinib 8 mg (QD), N = 11): 1 N
- Drug-related TEAE Punctate keratitis, Any grade (Erdafitinib 8 mg (QD), N = 11): 2 N
- Drug-related TEAE Stomatitis, Any grade (Erdafitinib 8 mg (QD), N = 11): 8 N
- Drug-related TEAE Stomatitis, ≥Grade 3 (Erdafitinib 8 mg (QD), N = 11): 2 N
- Patients with drug-related TEAEs, Any grade (Erdafitinib 8 mg (QD), N = 11): 11 N
- Patients with drug-related TEAEs, ≥Grade 3 (Erdafitinib 8 mg (QD), N = 11): 6 N
- patients reporting Grade 3 or higher TEAEs (as of 20 Aug. 2018, 8 mg once daily): 6/11
- AE leading to treatment discontinuation or death [7]: no AE
- most common TEAEs [7]: hyperphosphatemia, dry mouth, stomatitis, dry skin, nail disorder, and palmar-plantar erythrodysaesthesia syndrome
- patients who experienced drug-related TEAEs (as of 20 Aug. 2018, 11 patients, 8 mg once daily): All patients
- Serious TEAEs (not drug-related) (as of 20 Aug. 2018, of 11 (27.3%), upper gastrointestinal haemorrhage, pyelonephritis acute, pathological fracture, n=1 each): 3 patients
- Drug-related TEAEs leading to dose reduction (as of 20 Aug. 2018, of 11 patients (45.5%)): 5 patients
- Grade 3 or higher drug-related TEAEs (as of 20 Aug. 2018, of 11 patients (54.5%)): Six
- drug-related TEAEs leading to dose interruption (as of 20 Aug. 2018, of 11 patients (100%)): 11 patients
- safety profile in patients with FGFR-aberrant advanced cholangiocarcinoma [6]: tolerable safety profile
- AE diarrhea (subjects) [8]: 4/11
- AE dry mouth (subjects) [8]: 7/11
- AE hyperphosphatemia (subjects) [8]: 8/11
- AE nail disorder (subjects) [8]: 4/11
- AE palmar-plantar erythrodysaesthesia syndrome (subjects) [8]: 4/11
- AE stomatitis (subjects) [8]: 7/11
- AE leading to treatment discontinuation or death [9]: no AE
- drug related SAE [9]: no drug related SAE
- subjects who experienced AEs [9]: All subjects
- subjects who experienced Grade 3 or worse AEs [9]: 7
- subjects who experienced serious AEs (SAEs) [9]: 3
- subjects with AEs leading to dose reduction [9]: 3
- subjects with AEs leading to drug interruption [9]: all
- ORR - Objective Response Rate (CR+PR) ([3]; as of 20 Aug. 2018, 11 response evaluable, 8 mg once daily, n=5, 95% CI 16.7;76.6): 45.5%
- ORR (CR+PR+uCR+uPR) ([3]; as of 20 Aug. 2018, 11 response evaluable, 8 mg once daily, n=6, 95% CI 23.4;83.3): 54.5%
- Disease Control Rate-DCR (CR+PR+SD) ([3]; as of 20 Aug. 2018, 11 response evaluable, 8 mg once daily, n=8, 95% CI 39.0;94.0): 72.7%
- DCR (CR+PR+uCR+uPR+SD) ([3]; as of 20 Aug. 2018, 11 response evaluable, 8 mg once daily, n=9, 95% CI 48.2;97.7): 81.8%
- 9-months PFS rate ([3]; as of 20 Aug. 2018, 95% CI 11, 68): 40%
- stable disease (SD), number of patients [3, 10]: 3
- unconfirmed PR, number of patients [3, 10]: 1
- confirmed PR, number of patients ([3]; as of 20 Aug. 2018, all FGFR2 alteration (1 mutation and 4 fusions)): 5
- progressive disease (PD), number of patients ([3]; as of 20 Aug. 2018, both with FGFR3 mutations and concurrent KRAS mutations): 2
- 9-months PFS rate [3, 11]: 49%
- DCR [3, 11]: 100%
- ORR (CR+PR+uCR+uPR) [3, 11]: 66.7%
- maximum tumor shrinkage ([3]; one PR patient with a FGFR2-KIAA1598 fusion): −46.2%
- DCR (CR+PR+uCR+uPR+SD) [3, 12]: 81.8%
- ORR (CR+PR+uCR+uPR) [3, 12]: 45.5%
- PD, number of subjects [3, 12]: 2
- partial response (PR), number of subjects [3, 12]: 3
- stable disease (SD), number of subjects [3, 12]: 4
- unconfirmed PR (uPR), number of subjects [3, 12]: 2
